The target of this assay is T1, Tyrosinase (Agaricus bisporus, UniProt O42713).
T1 sequence (O42713 whole entry): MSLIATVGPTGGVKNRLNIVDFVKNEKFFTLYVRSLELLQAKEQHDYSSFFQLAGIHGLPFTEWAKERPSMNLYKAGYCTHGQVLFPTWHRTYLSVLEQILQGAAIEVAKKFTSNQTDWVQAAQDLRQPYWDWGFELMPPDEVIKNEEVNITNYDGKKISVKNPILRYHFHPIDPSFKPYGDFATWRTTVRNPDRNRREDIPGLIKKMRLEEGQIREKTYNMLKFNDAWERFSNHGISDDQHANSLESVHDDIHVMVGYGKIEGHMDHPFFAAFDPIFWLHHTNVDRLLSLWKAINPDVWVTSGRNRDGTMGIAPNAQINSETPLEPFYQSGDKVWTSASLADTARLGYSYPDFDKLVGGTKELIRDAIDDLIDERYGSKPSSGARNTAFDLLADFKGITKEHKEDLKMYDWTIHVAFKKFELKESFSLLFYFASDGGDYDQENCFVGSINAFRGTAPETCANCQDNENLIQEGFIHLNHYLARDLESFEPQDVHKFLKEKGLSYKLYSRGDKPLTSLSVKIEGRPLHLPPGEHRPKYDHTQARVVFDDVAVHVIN

What is called IC50 is the midpoint of a concentration-inhibition curve.

Description: Inhibition of mushroom tyrosinase

With `Oc1cc(O)cc(CC(c2ccc(O)cc2O)c2c(O)cc(/C=C/c3ccc(O)cc3O)cc2O)c1` (configuration not stated) [ANDALASIN A], half-maximal inhibition (IC50) was put at 39 µM.
Consider `Oc1cc(O)cc(/C=C/c2cc(C(Cc3cc(O)cc(O)c3)c3ccc(O)cc3O)c(O)cc2O)c1` (configuration not stated) [ARTOGOMEZIANOL], for which 68 µM corresponded to half-maximal inhibition (IC50).

Values taken from ChEMBL document CHEMBL1156378, “A new dimeric stilbene with tyrosinase inhibitiory activity from Artocarpus gomezianus” (J Nat Prod, 2001).
